Experimental data from patent publication US9981975B2, “Pyrrolotriazine compounds as tam inhibitors” (Incyte Corporation, priority 2016, dated 2018).

Columns and labels:
[1] = biological target: phosphor-Axl (Homo sapiens (Human), UniProt P30530); experiment: TAM Enzymatic Assay (HTRF), Axl; format: biochemical; settings: recombinant autophosphorylated Axl, 60 min, room temperature
Protocol: Autophosphorylation of Axl was carried out by incubating the recombinant Axl protein (Life Technologies, PV4275) in buffer containing 50 mM Tris, pH7.5, 0.2 mg/ml Axl, 5 mM ATP, 20 mM MgCl2 and 2 mM DTT at room temperature for 1 hour.
(§1) The kinase assay buffer contained 50 mM HEPES, pH7.5, 10 mM MgCl2, 1 mM EGTA, 0.01% NP-40 and 2 mM DTT. 0.1 ul test compounds dissolved in DMSO were transferred from compound plates to white 384-well assay plates (Greiner […] plates). […] 4 ul enzyme solution (or assay buffer for the enzyme blank) was added to the appropriate wells in each plate, and then 4 ul/well substrate solution was added to initiate the reaction. The plate was protected from light and incubated at room temperature for 60 min. […] The plate was incubated for 1 h at room temperature, and HTRF (homogenous time resolved fluorescence) signal was measured on a PHERAstar FS plate reader (BMG labtech). Percentage of inhibition was calculated for each concentration and IC50 value was generated from curve fitting with GraphPad Prism software.

[2] = biological target: Tyro3 (Homo sapiens (Human), UniProt Q06418); experiment: TAM Enzymatic Assay (HTRF), Tyro3; format: biochemical; settings: Tyro3, 60 min, room temperature
Chain of Tyro3 (Q06418 41-890): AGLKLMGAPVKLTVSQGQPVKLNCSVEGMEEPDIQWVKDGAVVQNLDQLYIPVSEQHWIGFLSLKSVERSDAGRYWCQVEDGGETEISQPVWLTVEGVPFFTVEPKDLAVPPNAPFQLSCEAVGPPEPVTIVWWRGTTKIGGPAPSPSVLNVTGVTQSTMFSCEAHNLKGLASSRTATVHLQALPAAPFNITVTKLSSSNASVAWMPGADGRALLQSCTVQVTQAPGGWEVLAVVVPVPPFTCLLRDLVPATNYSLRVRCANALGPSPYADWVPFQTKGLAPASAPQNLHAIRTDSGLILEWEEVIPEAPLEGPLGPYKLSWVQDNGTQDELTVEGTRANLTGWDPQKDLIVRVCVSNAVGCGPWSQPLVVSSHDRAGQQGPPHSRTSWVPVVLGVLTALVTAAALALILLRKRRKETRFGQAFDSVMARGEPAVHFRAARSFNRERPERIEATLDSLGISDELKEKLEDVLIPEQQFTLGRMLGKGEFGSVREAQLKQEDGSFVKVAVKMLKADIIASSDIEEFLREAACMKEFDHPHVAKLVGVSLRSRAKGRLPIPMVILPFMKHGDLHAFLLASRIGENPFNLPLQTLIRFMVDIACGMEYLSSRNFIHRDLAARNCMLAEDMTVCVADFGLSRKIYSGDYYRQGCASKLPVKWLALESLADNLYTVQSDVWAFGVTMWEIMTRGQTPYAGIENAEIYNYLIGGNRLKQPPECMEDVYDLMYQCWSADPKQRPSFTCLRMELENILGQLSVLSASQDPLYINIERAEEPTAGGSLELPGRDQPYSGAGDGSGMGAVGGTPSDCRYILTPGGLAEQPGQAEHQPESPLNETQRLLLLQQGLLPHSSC
Protocol: as §1

Chain of phosphor-Axl (P30530 26-894): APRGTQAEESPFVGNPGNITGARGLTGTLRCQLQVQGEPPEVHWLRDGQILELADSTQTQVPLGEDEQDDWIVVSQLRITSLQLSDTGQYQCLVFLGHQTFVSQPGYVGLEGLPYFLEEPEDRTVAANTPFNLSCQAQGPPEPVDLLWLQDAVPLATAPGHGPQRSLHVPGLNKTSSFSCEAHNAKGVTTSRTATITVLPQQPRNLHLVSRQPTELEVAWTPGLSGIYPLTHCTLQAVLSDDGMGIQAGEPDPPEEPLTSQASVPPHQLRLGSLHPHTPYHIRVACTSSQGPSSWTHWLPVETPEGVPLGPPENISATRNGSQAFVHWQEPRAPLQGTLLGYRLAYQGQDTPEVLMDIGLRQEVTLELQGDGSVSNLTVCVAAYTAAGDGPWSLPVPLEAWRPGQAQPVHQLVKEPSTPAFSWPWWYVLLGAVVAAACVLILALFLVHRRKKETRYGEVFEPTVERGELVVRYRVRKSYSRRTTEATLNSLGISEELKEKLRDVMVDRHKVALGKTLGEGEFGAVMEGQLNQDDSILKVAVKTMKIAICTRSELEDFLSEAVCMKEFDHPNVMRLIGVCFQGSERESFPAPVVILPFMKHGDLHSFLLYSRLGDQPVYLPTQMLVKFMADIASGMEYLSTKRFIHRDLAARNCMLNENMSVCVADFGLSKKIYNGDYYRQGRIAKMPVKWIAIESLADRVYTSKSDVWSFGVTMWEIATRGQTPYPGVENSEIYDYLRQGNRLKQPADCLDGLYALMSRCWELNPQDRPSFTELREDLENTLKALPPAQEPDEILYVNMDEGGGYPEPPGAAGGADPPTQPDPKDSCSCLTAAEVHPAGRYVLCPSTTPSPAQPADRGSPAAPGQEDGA

Structure (SMILES)	IC50 [1]	IC50 [2]
CC(C)C(=O)N1CCC(c2cc(-c3ccc(NC(=O)c4cn(C(C)C)c(=O)n(-c5cc(F)ccc5F)c4=O)cc3)c3c(N)ncnn23)CC1 [Example 76, N-(4-(4-Amino-7-(1-isobutyrylpiperidin-4-yl)pyrrolo[1,2-f][1,2,4]triazin-5-yl)phenyl)-3-(2,5-difluorophenyl)-1-isopropyl-2,4-dioxo-1,2,3,4-tetrahydropyrimidine-5-carboxamide]	≤ 5 nM	> 100 nM
Cc1cc(NC(=O)c2cn(C(C)C)c(=O)n(-c3ccccc3)c2=O)ccc1-c1cc(C2CCN(C(=O)C(C)C)CC2)n2ncnc(N)c12 [Example 77, N-(4-(4-Amino-7-(1-isobutyrylpiperidin-4-yl)pyrrolo[1,2-f][1,2,4]triazin-5-yl)-3-methylphenyl)-1-isopropyl-2,4-dioxo-3-phenyl-1,2,3,4-tetrahydropyrimidine-5-carboxamide]	≤ 5 nM	> 100 nM
Cc1cc(C(=O)N(C)C)ncc1-c1cc(-c2ccc(NC(=O)c3cn(C(C)C)c(=O)n(-c4ccccc4)c3=O)cc2)c2c(N)ncnn12 [Example 85, N-(4-(4-amino-7-(6-(dimethylcarbamoyl)-4-methylpyridin-3-yl)pyrrolo[1,2-f][1,2,4]triazin-5-yl)phenyl)-1-isopropyl-2,4-dioxo-3-phenyl-1,2,3,4-tetrahydropyrimidine-5-carboxamide]	≤ 5 nM	> 100 nM
CC(C)C(=O)N1CCC(c2cc(-c3ccc(NC(=O)c4cn(C(C)C)c(=O)n(-c5cccc(C#N)c5)c4=O)cc3)c3c(N)ncnn23)CC1 [Example 91, N-(4-(4-Amino-7-(1-isobutyrylpiperidin-4-yl)pyrrolo[2,1-f][1,2,4]triazin-5-yl)phenyl)-3-(3-cyanophenyl)-1-isopropyl-2,4-dioxo-1,2,3,4-tetrahydropyrimidine-5-carboxamide]	≤ 5 nM	> 100 nM
CC(C)n1cc(C(=O)Nc2ccc(-c3cc(C4CN(C(=O)C5CC5)C4)n4ncnc(N)c34)cc2)c(=O)n(-c2ccccc2)c1=O [Example 94, N-(4-(4-amino-7-(1-(cyclopropanecarbonyl)azetidin-3-yl)pyrrolo[2,1-f][1,2,4]triazin-5-yl)phenyl)-1-isopropyl-2,4-dioxo-3-phenyl-1,2,3,4-tetrahydropyrimidine-5-carboxamide]	≤ 5 nM	> 100 nM
CC(C)n1cc(C(=O)Nc2ccc(-c3cc(CN4CCOCC4)n4ncnc(N)c34)cc2)c(=O)n(-c2ccccc2)c1=O [Example 95, N-(4-(4-Amino-7-(morpholinomethyl)pyrrolo[1,2-f][1,2,4]triazin-5-yl)phenyl)-1-isopropyl-2,4-dioxo-3-phenyl-1,2,3,4-tetrahydropyrimidine-5-carboxamide]	≤ 5 nM	> 100 nM
Cc1c(-c2cnn(C)c2)cc(C(=O)Nc2ccc(-c3cc(C4CCN(C(=O)C(C)C)CC4)n4ncnc(N)c34)cc2)c(=O)n1-c1ccccc1 [Example 107, N-{4-[4-Amino-7-(1-isobutyrylpiperidin-4-yl)pyrrolo[2,1-f][1,2,4]triazin-5-yl]phenyl}-6-methyl-5-(1-methyl-1H-pyrazol-4-yl)-2-oxo-1-phenyl-1,2-dihydropyridine-3-carboxamide]	≤ 5 nM	> 100 nM
Cc1c(N2CCOCC2)cc(C(=O)Nc2ccc(-c3cc(C4CCN(C(=O)C(C)C)CC4)n4ncnc(N)c34)cc2)c(=O)n1-c1ccccc1 [Example 110, N-{4-[4-Amino-7-(1-isobutyrylpiperidin-4-yl)pyrrolo[2,1-f][1,2,4]triazin-5-yl]phenyl}-6-methyl-5-morpholin-4-yl-2-oxo-1-phenyl-1,2-dihydropyridine-3-carboxamide]	≤ 5 nM	> 100 nM
CC(C)C(=O)N1CCC(c2cc(-c3ccc(NC(=O)c4cc5c(n(-c6cncc(F)c6)c4=O)CCC(C)(C)C5=O)cc3)c3c(N)ncnn23)CC1 [Example 115, N-(4-(4-Amino-7-(1-isobutyrylpiperidin-4-yl)pyrrolo[1,2-f][1,2,4]triazin-5-yl)phenyl)-1-(5-fluoropyridin-3-yl)-6,6-dimethyl-2,5-dioxo-1,2,5,6,7,8-hexahydroquinoline-3-carboxamide]	≤ 5 nM	> 100 nM
CC(C)C(=O)N1CCC(c2cc(-c3ccc(NC(=O)c4cc(C5CC5)nn(-c5ccccc5)c4=O)cc3)c3c(N)ncnn23)CC1 [Example 117, N-{4-[4-Amino-7-(1-isobutyrylpiperidin-4-yl)pyrrolo[2,1-f][1,2,4]triazin-5-yl]phenyl}-6-cyclopropyl-3-oxo-2-phenyl-2,3-dihydropyridazine-4-carboxamide]	≤ 5 nM	> 100 nM
Cc1c(-c2ccnn2C)cc(C(=O)Nc2ccc(-c3cc(C4CCN(C(=O)C(C)C)CC4)n4ncnc(N)c34)cc2)c(=O)n1-c1ccccn1 [Example 123, N-(4-(4-Amino-7-(1-isobutyrylpiperidin-4-yl)pyrrolo[2,1-f][1,2,4]triazin-5-yl)phenyl)-6-methyl-5-(1-methyl-1H-pyrazol-5-yl)-2-oxo-2H-[1,2′-bipyridine]-3-carboxamide]	≤ 5 nM	> 100 nM
Cc1c(Cl)cc(C(=O)Nc2ccc(-c3cc(C4CCN(C(=O)C(C)C)CC4)n4ncnc(N)c34)cc2)c(=O)n1-c1ccccn1 [Example 124, N-(4-(4-Amino-7-(1-isobutyrylpiperidin-4-yl)pyrrolo[2,1-f][1,2,4]triazin-5-yl)phenyl)-5-chloro-6-methyl-2-oxo-2H-[1,2′-bipyridine]-3-carboxamide]	≤ 5 nM	> 100 nM
CC(C)C(=O)N1CCC(c2cc(-c3ccc(NC(=O)c4cn(C(C)C)cc(-c5cccnc5)c4=O)cc3)c3c(N)ncnn23)CC1 [Example 128, N-(4-(4-Amino-7-(1-isobutyrylpiperidin-4-yl)pyrrolo[1,2-f][1,2,4]triazin-5-yl)phenyl)-1-isopropyl-4-oxo-5-(pyridin-3-yl)-1,4-dihydropyridine-3-carboxamide]	≤ 5 nM	> 100 nM
CC(C)C(=O)N1CCC(c2cc(-c3ccc(NC(=O)c4cn(C(C)C)cc(-c5cncc(F)c5)c4=O)cc3)c3c(N)ncnn23)CC1 [Example 129, N-(4-(4-amino-7-(1-isobutyrylpiperidin-4-yl)pyrrolo[1,2-f][1,2,4]triazin-5-yl)phenyl)-5-(5-fluoropyridin-3-yl)-1-isopropyl-4-oxo-1,4-dihydropyridine-3-carboxamide]	≤ 5 nM	> 100 nM
Cc1c(-c2cnn(C)c2)cc(C(=O)Nc2ccc(-c3cc(C4CCN(C(=O)C(C)C)CC4)n4ncnc(N)c34)cc2)c(=O)n1-c1cccnc1 [Example 133, N-(4-(4-Amino-7-(1-isobutyrylpiperidin-4-yl)pyrrolo[2,1-f][1,2,4]triazin-5-yl)phenyl)-6-methyl-5-(1-methyl-1H-pyrazol-4-yl)-2-oxo-2H-[1,3′-bipyridine]-3-carboxamide]	≤ 5 nM	> 100 nM
Cc1c(-c2ccnn2C)cc(C(=O)Nc2ccc(-c3cc(C4CCN(C(=O)C(C)C)CC4)n4ncnc(N)c34)cc2)c(=O)n1-c1cccnc1 [Example 134, N-(4-(4-Amino-7-(1-isobutyrylpiperidin-4-yl)pyrrolo[2,1-f][1,2,4]triazin-5-yl)phenyl)-6-methyl-5-(1-methyl-1H-pyrazol-5-yl)-2-oxo-2H-[1,3′-bipyridine]-3-carboxamide]	≤ 5 nM	> 100 nM
CCOCc1c(C#N)cc(C(=O)Nc2ccc(-c3cc(C4CCN(C(=O)C(C)C)CC4)n4ncnc(N)c34)cc2)c(=O)n1-c1ccccc1 [Example 137, N-(4-(4-Amino-7-(1-isobutyrylpiperidin-4-yl)pyrrolo[2,1-f][1,2,4]triazin-5-yl)phenyl)-5-cyano-6-(ethoxymethyl)-2-oxo-1-phenyl-1,2-dihydropyridine-3-carboxamide]	≤ 5 nM	> 100 nM
CC(C)C(=O)N1CCC(c2cc(-c3ccc(NC(=O)c4cn(C5CC5)c(=O)n(-c5cccnc5)c4=O)cc3)c3c(N)ncnn23)CC1 [Example 140, N-(4-(4-Amino-7-(1-isobutyrylpiperidin-4-yl)pyrrolo[2,1-f][1,2,4]triazin-5-yl)phenyl)-1-cyclopropyl-2,4-dioxo-3-(pyridin-3-yl)-1,2,3,4-tetrahydropyrimidine-5-carboxamide]	≤ 5 nM	> 100 nM
Cc1ncccc1-c1c(C)n(C2CC2)cc(C(=O)Nc2ccc(-c3cc(C4CCN(C(=O)C(C)C)CC4)n4ncnc(N)c34)cc2)c1=O [Example 142, N-(4-(4-Amino-7-(1-isobutyrylpiperidin-4-yl)pyrrolo[2,1-f][1,2,4]triazin-5-yl)phenyl)-1-cyclopropyl-2,2′-dimethyl-4-oxo-1,4-dihydro-[3,3′-bipyridine]-5-carboxamide]	≤ 5 nM	> 100 nM
CC(C)C(=O)N1CCC(c2cc(-c3ccc(NC(=O)c4cn(C(C)C)c(=O)n(-c5ncccn5)c4=O)cc3)c3c(N)ncnn23)CC1 [Example 143, N-(4-(4-Amino-7-(1-isobutyrylpiperidin-4-yl)pyrrolo[1,2-f][1,2,4]triazin-5-yl)phenyl)-1-isopropyl-2,4-dioxo-3-(pyrimidin-2-yl)-1,2,3,4-tetrahydropyrimidine-5-carboxamide]	≤ 5 nM	> 100 nM
